Data on 15 compounds can be found in US20260258039A1, “AROMATIC COMPOUND, METHOD FOR PREPARING SAME, AND USE THEREOF IN PREPARATION OF ESTROGEN RECEPTOR DEGRADER” (Hinova Pharmaceuticals Inc., priority 2022, published 2026).

The experiment has as its target T1, ER (Homo sapiens, UniProt P03372).
T1 construct: T47D breast cancer cells were subcultured in cell culture medium; endogenous in cells; host or cells: T47D breast cancer cells
T1 sequence (P03372 1-595): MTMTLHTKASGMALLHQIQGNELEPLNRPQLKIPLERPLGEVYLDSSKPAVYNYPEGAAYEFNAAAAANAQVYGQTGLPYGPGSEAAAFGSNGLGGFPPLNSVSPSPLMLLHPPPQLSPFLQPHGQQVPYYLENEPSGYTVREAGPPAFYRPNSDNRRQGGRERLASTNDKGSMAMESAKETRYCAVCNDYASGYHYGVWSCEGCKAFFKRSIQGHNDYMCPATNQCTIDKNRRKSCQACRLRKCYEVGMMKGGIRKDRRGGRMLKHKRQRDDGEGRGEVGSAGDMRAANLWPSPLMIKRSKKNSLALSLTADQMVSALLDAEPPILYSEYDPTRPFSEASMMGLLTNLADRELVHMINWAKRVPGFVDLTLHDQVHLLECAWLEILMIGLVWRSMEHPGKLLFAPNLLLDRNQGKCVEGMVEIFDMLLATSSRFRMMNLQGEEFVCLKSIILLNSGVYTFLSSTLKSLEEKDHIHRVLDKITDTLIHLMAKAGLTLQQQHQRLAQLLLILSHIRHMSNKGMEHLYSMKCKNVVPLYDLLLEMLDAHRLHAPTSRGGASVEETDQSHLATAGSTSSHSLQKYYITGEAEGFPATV
The experiment can be described thus: Degradation activities on ER (ELISA) in T47D breast cancer cells. The experiment is classed as cell-based. The note with it: T47D cells, 24 h, ELISA; for DC50: concentration required to degrade 50% of the target protein; for Dmax: maximum percentage of target protein degraded, read-out: Dmax. As to the method:
T47D breast cancer cells were subcultured in cell culture medium, and then the cells in good growth condition were seeded into 96-well plates at 80 µL/well, with 2.5×10^4 cells per well. The cells were incubated in a 37° C., 5% CO2 incubator for 3 days. The drug was prepared into a 10 mM stock solution with dimethyl sulfoxide (DMSO). Prior to use, the stock solution was diluted with cell culture medium to obtain six final concentrations (100 nM, 25 nM, 6.25 nM, 1.56 nM, 0.39 nM, and […]), and gently mixed. Additionally, negative control wells (only containing culture medium) and positive control wells (only containing cells and DMSO) were included. After the cells were incubated in the incubator for 24 h, the cells were rinsed once with ice-cold 1×PBS. […] The plate was sealed with plastic film, and incubated in a 37° C. incubator for 2 h. The film was removed. 200 μL of 1× washing buffer was added to each well, and then the plate was shaken for 5 min. The washing buffer was discarded, and the plate was pat-dried. The plate was washed four times. 100 μL of freshly prepared detection antibody (green) was added to each well of the ELISA plate. The plate was sealed with plastic film, and then incubated in a 37° C. incubator for 1 h. The film was removed, and the detection antibody was discarded. The plate was pat-dried. 200 μL of 1× washing buffer was added to each well, and then the plate was shaken for 5 min. The washing buffer was discarded, and the plate was pat-dried. The plate was washed four times. 100 μL of freshly prepared HRP-labeled secondary antibody (red) was added to each well of the ELISA plate. The plate was sealed with plastic film, and incubated in a 37° C. incubator for 30 min. The film was removed, the secondary antibody was discarded, and the plate was pat-dried, followed by adding 200 μL of 1× washing buffer to each well. The plate was shaken for 5 min, and the washing buffer was discarded before pat-drying the plate. The plate was washed four times. 100 μl of TMB substrate was added to each well of the ELISA plate, followed by incubating in a 37° C. incubator for 5 min. 100 μL of STOP solution was added to each well of the ELISA plate, and the plate was gently shaken for a few seconds. The bottom of each well was wiped with lint-free cloth. Within 30 min after adding the STOP solution, the absorbance was read at 450 nm. […] The data were analyzed using the Dose-response equation in GraphPad Prism8 software to obtain the DC50 and Dmax values, and both of them are important indicators for measuring the degradation activities of compounds on target proteins. […] The Dmax value represents the maximum percentage of target protein that can be degraded by the compound.

In the case of `O=C1CCC(N2Cc3cc(N4CC5(CCN(CC6CCN(c7ccc([C@@H]8c9ccc(O)cc9OC[C@@H]8CC(F)(F)F)cc7)CC6)CC5)C4)ccc3C2=O)C(=O)N1` (stereo partly drawn) [Example 92, 3-(5-(7-((1-(4-(cis-7-hydroxyl-3-(2,2,2-trifluoroethyl)chroman-4-yl)phenyl)piperidin-4-yl)methyl)-2,7-diazaspiro[3.5]nonane-2-yl)-1-oxoisoinodolin-2-yl)piperidin-2,6-dione], the DC50 fell in the range of 10 to 50 nM and the greatest degradation seen (Dmax) lay in the range of 50 to 75%.
`O=C1CCC(N2Cc3cc(N4CC5(CCN(CC6CCN(c7ccc([C@H]8c9ccc(O)cc9OC[C@H]8c8cccc(F)c8F)cc7F)CC6)CC5)C4)ccc3C2=O)C(=O)N1` (stereo partly drawn) [Example 24, 3-(5-(7-((1-(4-((3R,4S)-3-(2,3-difluorophenyl)-7-hydroxychroman-4-yl)-2-fluorophenyl)piperidin-4-yl)methyl)-2,7-diazaspiro[3.5]nonane-2-yl)-1-oxoisoinodolin-2-yl)piperidin-2,6-dione]: the DC50 was more than 100 nM and the Dmax is less than 50%.
As to `O=C1CCC(N2Cc3cc(N4CC5(CCN(CC6CCN(c7c(F)cc(C8=C(c9ccccc9F)COc9cc(OCc%10ccccc%10)ccc98)cc7F)CC6)CC5)C4)ccc3C2=O)C(=O)N1` (centres unmarked) [Example 52], the half-maximal degradation concentration (DC50) is more than 100 nM and the Dmax is less than 50%.
The matching figures for `O=C1CCC(N2Cc3cc(N4CC5(CCN(CC6CCN(c7c(F)cc([C@@H]8c9ccc(OCc%10ccccc%10)cc9OC[C@@H]8c8ccccc8F)cc7F)CC6)CC5)C4)ccc3C2=O)C(=O)N1` (stereo partly drawn) [Example 51, 3-(5-(7-((1-(4-(cis-7-(benzyloxy)-3-(2-fluorophenyl)chroman-4-yl)-2,6-difluorophenyl)piperidin-4-yl)methyl)-2,7-diazaspiro[3.5]nonane-2-yl)-1-oxoisoinodolin-2-yl)piperidin-2,6-one]: more than 100 nM and less than 50%.
With `O=C1CCC(N2Cc3cc(N4CC5(CCN(CC6CCN(c7ccc([C@@H]8c9ccc(O)cc9OC[C@@H]8c8cc(F)ccc8F)cc7)CC6)CC5)C4)ccc3C2=O)C(=O)N1` (stereo partly drawn) [Example 47, 3-(5-(7-((1-(4-(cis-3-(2,5-difluorophenyl)-7-hydroxychroman-4-yl)phenyl)piperidin-4-yl)methyl)-2,7-diazaspiro[3.5]nonane-2-yl)-1-oxoisoinodolin-2-yl)piperidin-2,6-dione], the DC50 was 10 to 50 nM and the Dmax fell in the range of 50 to 75%.
As for `O=C1CC[C@H](N2Cc3cc(N4CC5(CCN(CC6CCN(c7ccc([C@@H]8c9ccc(O)cc9OC[C@@H]8c8ccccc8F)cc7)CC6)CC5)C4)ccc3C2=O)C(=O)N1` [Example 91, (S)-3-(5-(7-((1-(4-((3S, 4R)-3-(2-fluorophenyl)-7-hydroxychroman-4-yl)phenyl)piperidin-4-yl)methyl)-2,7-diazaspiro[3.5]nonane-2-yl)-1-oxoisoinodolin-2-yl)piperidin-2,6-dione], the 50% degradation concentration (DC50) is less than 10 nM and the Dmax is more than 75%.
As for `O=C1CCC(N2Cc3cc(N4CCC(N5CC6(CCN(c7ccc([C@@H]8c9ccc(O)cc9CC[C@@H]8c8ccccc8F)cc7)CC6)C5)CC4)ccc3C2=O)C(=O)N1` (stereo partly drawn) [Example 19, 3-(5-(4-(7-(4-(cis-2-(2-fluorophenyl)-6-hydroxyl-1,2,3,4-tetrahydronaphthalen-1-yl)phenyl)-2,7-diazaspiro[3.5]nonane-2-yl)piperidin-1-yl)-1-oxoisoinodolin-2-yl)piperidin-2,6-dione], the DC50 was less than 10 nM and the greatest degradation seen (Dmax) is more than 75%.
For `O=C1CCC(N2Cc3cc(N4CCC(N5CC6(CCN(c7ccc([C@@H]8c9ccc(O)cc9CC[C@@H]8c8ccccc8F)cc7F)CC6)C5)CC4)ccc3C2=O)C(=O)N1` (stereo partly drawn) [Example 67, 3-(5-(4-(7-(2-fluoro-4-((1,2-cis)-2-(2-fluorophenyl)-6-hydroxyl-1,2,3,4-tetrahydronaphthalen-1-yl)phenyl)-2,7-diazaspiro[3.5]nonane-2-yl)piperidin-1-yl)-1-oxoisoinodolin-2-yl)pyridine-2,6-dione], the half-maximal degradation concentration (DC50) was less than 10 nM and the Dmax is more than 75%.
Take `O=C1CCC(N2Cc3cc(N4CC5(CCN(CC6CN(c7ccc(C8c9ccc(O)cc9OC[C@@H]8c8ccccc8F)cc7)C6)CC5)C4)ccc3C2=O)C(=O)N1` (stereo partly drawn) [Example 5, 3-(5-(7-((1-(4-(cis-3-(2-fluorophenyl)-7-hydroxypyran-4-yl)phenyl)azetidin-3-yl)methyl)-2,7-diazaspiro[3.5]nonane-2-yl)-1-oxoisoinodolin-2-yl)piperidin-2,6-dione]: the DC50 was more than 100 nM and the Dmax fell in the range of 50 to 75%.
On to `O=C1CCC(N2Cc3cc(N4CCC(N5CC6(CCN(c7ccc([C@@H]8c9ccc(O)cc9CC[C@@H]8c8ccccc8)cc7F)CC6)C5)CC4)ccc3C2=O)C(=O)N1` (stereo partly drawn) [Example 69, 3-(5-(4-(7-(2-fluoro-4-((1,2-cis)-6-hydroxyl-2-phenyl-1,2,3,4-tetrahydronaphthalen-1-yl)phenyl)-2,7-diazaspiro[3.5]nonane-2-yl)piperidin-1-yl)-1-oxoisoinodolin-2-yl)pyridine-2,6-dione], for which the DC50 is less than 10 nM and the Dmax was more than 75%.
In the case of `O=C1CCC(N2Cc3cc(N4CC5(CCN(CC6CCN(c7c(F)cc([C@H]8c9ccc(O)cc9OC[C@H]8c8c(F)cccc8F)cc7F)CC6)CC5)C4)ccc3C2=O)C(=O)N1` (some centres unmarked) [Example 41], the DC50 was more than 100 nM and the greatest degradation seen (Dmax) is less than 50%.
The compound `O=C1CCC(N2Cc3cc(N4CCC(N5CC6(CCN(c7ccc([C@@H]8c9ccc(O)cc9OC[C@@H]8c8ccccc8F)cc7)CC6)C5)CC4)ccc3C2=O)C(=O)N1` (stereo partly drawn) [Example 20, 3-(5-(4-(7-(4-(cis-3-(2-fluorophenyl)-7-hydroxychroman-4-yl)phenyl)-2,7-diazaspiro[3.5]nonane-2-yl)piperidin-1-yl)-1-oxoisoinodolin-2-yl)piperidin-2,6-dione] had a 50% degradation concentration (DC50) of less than 10 nM.
For `O=C1CCC(N2Cc3cc(N4CCC(N5CC6(CCN(c7ccc([C@@H]8c9ccc(O)cc9OC[C@@H]8c8ccccc8)cc7)CC6)C5)CC4)ccc3C2=O)C(=O)N1` (some centres unmarked) [Example 13], the DC50 was less than 10 nM and the Dmax was more than 75%.
In the case of `O=C1CCC(N2Cc3cc(N4CCC(N5CC6(CCN(c7ccc([C@H]8c9ccc(O)cc9CC[C@H]8c8ccccc8F)cc7)CC6)C5)CC4)ccc3C2=O)C(=O)N1` (stereo partly drawn) [Example 21, 3-(5-(4-(7-(4-((1S,2R)-2-(2-fluorophenyl)-6-hydroxyl-1,2,3,4-tetrahydronaphthalen-1-yl)phenyl)-2,7-diazaspiro[3.5]nonane-2-yl)piperidin-1-yl)-1-oxoisoinodolin-2-yl)piperidin-2,6-dione], the DC50 is more than 100 nM and the Dmax was less than 50%.
`O=C1CCC(N2Cc3cc(N4CC5(CCN(CC6CCN(c7ccc([C@@H]8c9ccc(O)cc9OC[C@@H]8c8cccc(F)c8F)cc7)CC6)CC5)C4)ccc3C2=O)C(=O)N1` (relative stereo) [Example 36, 3-(5-(7-((1-(4-(cis-3-(2,3-difluorophenyl)-7-hydroxychroman-4-yl)phenyl)piperidin-4-yl)methyl)-2,7-diazaspiro[3.5]nonane-2-yl)-1-oxoisoindol-2-yl)piperidin-2,6-dione]: the 50% degradation concentration (DC50) was less than 10 nM and the greatest degradation seen (Dmax) fell in the range of 50 to 75%.

The term DC50 denotes the midpoint of the concentration-degradation curve. The Dmax is the largest share of the target that was removed.
